From patent publication US10183015B2, “Heterocyclic compounds and methods of use” (Medivation Technologies LLC, priority 2015, dated 2019)

Tested on: HepG2 cells
Experiment: HepG2 cell viability under serum-free conditions (MTS)
Assay type: cell-based
Settings: Homo sapiens, HepG2, 72 h; 5 μM, 3 days, DMEM without FBS; read-out: Average Viability (% Inhibition, n = 3)
Procedure: Cancer cells such as HepG2 cells depend on SREBP activation and de novo lipogenesis to survive, particularly in low serum or serum-free conditions. Using this model, compounds were screened over 24 hours for the ability to block cleavage of SREBP to its active form and over 72 hours for an effect on cell viability under serum-free conditions.
For viability measurements, HepG2 cells were seeded at 5,000 cells per well in 96-well plates in DMEM supplemented with 10% FBS. After 1 day in culture, cells were treated with compounds (20 μM & 5 μM) for 3 days in DMEM without FBS. Viability was measured by MTS […]. […]

Question: For `O=S(=O)(Nc1ccc(-c2csc(-c3ccnc(CC4CCCCC4)c3)n2)c(Cl)c1)C(F)(F)F` [Compound 70, N-(3-chloro-4-{2-[2-(cyclohexylmethyl)pyridin-4-yl]-1,3-thiazol-4-yl}phenyl)-1,1,1-trifluoromethanesulfonamide], which cytotoxicity at 5 µM is on record?
Answer: Its cytotoxicity at 5 µM is 100%.

Question: `O=S(=O)(Nc1ccc(-c2csc(-c3cccc4[nH]ccc34)n2)c(Cl)c1)C(F)(F)F` [Compound 80, N-{3-chloro-4-[2-(1H-indol-4-yl)-1,3-thiazol-4-yl]phenyl}-1,1,1-trifluoromethanesulfonamide] was tested. Which cytotoxicity at 5 µM did it give?
Answer: Its cytotoxicity at 5 µM is 86%.

Question: For `O=S(=O)(Nc1ccc(-c2csc(-c3ccnc4ccccc34)n2)c(Cl)c1)C(F)(F)F` [Compound 94, N-[3-chloro-4-[2-(4-quinolyl)thiazol-4-yl]phenyl]-1,1,1-trifluoro-methanesulfonamide], which cytotoxicity at 5 µM is on record?
Answer: Its cytotoxicity at 5 µM is 84%.

Question: How did the cytotoxicity at 5 µM turn out when `Cc1noc(C)c1-c1nc(-c2ccc(NS(=O)(=O)C(F)(F)F)cc2Cl)cs1` [Compound 77, N-{3-chloro-4-[2-(dimethyl-1,2-oxazol-4-yl)-1,3-thiazol-4-yl]phenyl}-1,1,1-trifluoromethanesulfonamide] was run?
Answer: The cytotoxicity at 5 µM was 41%.

Question: For `O=S(=O)(Nc1ccc(-c2csc(-c3ccnc(NC4CCCC4)c3)n2)c(Cl)c1)C(F)(F)F` [Compound 92, N-(3-chloro-4-{2-[2-(cyclopentylamino)pyridin-4-yl]-1,3-thiazol-4-yl}phenyl)-1,1,1-trifluoromethanesulfonamide], which cytotoxicity at 5 µM is on record?
Answer: The cytotoxicity at 5 µM was 94%.

Question: Which cytotoxicity at 5 µM does the source give for `O=S(=O)(Nc1ccc(-c2csc(-c3ccccc3-c3ccccc3)n2)c(Cl)c1)C(F)(F)F` [Compound 74, N-{3-chloro-4-[2-(2-phenylphenyl)-1,3-thiazol-4-yl]phenyl}-1,1,1-trifluoromethanesulfonamide] here?
Answer: The cytotoxicity at 5 µM was 97%.

Question: Which cytotoxicity at 5 µM does the source give for `O=S(=O)(Nc1ccc(-c2csc(-c3ccc(F)cc3CN3CCCC3)n2)c(Cl)c1)C(F)(F)F` [Compound 91, N-(3-chloro-4-{2-[4-fluoro-2-(pyrrolidin-1-ylmethyl)phenyl]-1,3-thiazol-4-yl}phenyl)-1,1,1-trifluoromethanesulfonamide] here?
Answer: Its cytotoxicity at 5 µM is 4%.

Question: For `O=S(=O)(Nc1ccc(-c2csc(-c3ccccc3CO)n2)c(Cl)c1)C(F)(F)F` [Compound 84, N-(3-chloro-4-{2-[2-(hydroxymethyl)phenyl]-1,3-thiazol-4-yl}phenyl)-1,1,1-trifluoromethanesulfonamide], which cytotoxicity at 5 µM is on record?
Answer: The cytotoxicity at 5 µM was 18%.

Same assay, conditions: Homo sapiens, HepG2, 72 h; 20 μM, 3 days, DMEM without FBS; read-out: Average Viability (% Inhibition, n = 3)

Question: `O=S(=O)(Nc1ccc(-c2csc(-c3ccnc(NS(=O)(=O)C(F)(F)F)c3)n2)c(Cl)c1)C(F)(F)F` [Compound 66, N-{3-chloro-4-[2-(2-trifluoromethanesulfonamidopyridin-4-yl)-1,3-thiazol-4-yl]phenyl}-1,1,1-trifluoromethanesulfonamide] was tested. Which cytotoxicity at 20 µM did it give?
Answer: Its cytotoxicity at 20 µM is 11%.

Question: For `O=S(=O)(Nc1ccc(-c2csc(-c3ccnc(Cc4ccccc4)c3)n2)c(Cl)c1)C(F)(F)F` [Compound 60, N-{4-[2-(2-benzylpyridin-4-yl)-1,3-thiazol-4-yl]-3-chlorophenyl}-1,1,1-trifluoromethanesulfonamide], which cytotoxicity at 20 µM is on record?
Answer: The cytotoxicity at 20 µM was 100%.

Question: `O=C(c1ccc(-c2nc(-c3ccc(NS(=O)(=O)C(F)(F)F)cc3Cl)cs2)cc1)N1CCCCC1` [Compound 67, N-(3-chloro-4-{2-[4-(piperidine-1-carbonyl)phenyl]-1,3-thiazol-4-yl}phenyl)-1,1,1-trifluoromethanesulfonamide] was tested. Which cytotoxicity at 20 µM did it give?
Answer: The cytotoxicity at 20 µM was 20%.

Question: With `O=S(=O)(Nc1ccc(-c2csc(-c3ccnc(CCC(F)(F)F)c3)n2)c(Cl)c1)C(F)(F)F` [Compound 64, N-(3-chloro-4-{2-[2-(3,3,3-trifluoropropyl)pyridin-4-yl]-1,3-thiazol-4-yl}phenyl)-1,1,1-trifluoromethanesulfonamide] as the compound, how does the cytotoxicity at 20 µM read?
Answer: The cytotoxicity at 20 µM was 100%.

Question: For `CCCc1cc(-c2nc(-c3ccc(NS(=O)(=O)C(F)(F)F)cc3Cl)cs2)ccn1` [Compound 4, N-(3-chloro-4-(2-(2-propylpyridin-4-yl)thiazol-4-yl)phenyl)-1,1,1-trifluoromethanesulfonamide], which cytotoxicity at 20 µM is on record?
Answer: The cytotoxicity at 20 µM was 94.4%.
